Measured values taken from patent publication US7550485B2, “Substituted N-heterocycle derivatives and methods of their use” (Wyeth, priority 2003, dated 2009).
pEC50: −log10 of the molar value. Counter-ions that a name gives are not always drawn.

Target: T1, hNET (Homo sapiens, UniProt P23975)
T1 construct: expressed in transfected cells
Test: Norepinephrine (NE) uptake assay in MDCK-Net6 cells stably transfected with human hNET
Format: cell-based
Details: 1 μM test compound, [3H]NE uptake, dihydrochloride, 1 µM
Method: MDCK-Net6 cells, stably transfected with human hNET (Pacholczyk, T., R. D. Blakely, and S. G. Amara, Nature, 1991, 350(6316): p. 350-4) were cultured in growth medium containing high glucose DMEM (Gibco, Cat. No. 11995), 10% FBS (dialyzed, heat-inactivated, US Bio-Technologies, Lot FBD1129HI) and 500 μg/ml G418 (Gibco, Cat. No. 10131). Cells were plated at 300,000/T75 flask and cells were split twice weekly. The JAR cell line (human placental choriocarcinoma) was purchased from ATCC (Cat. No. HTB-144). The cells were cultured in growth medium containing RPMI 1640 (Gibco, Cat. No. 72400), 10% FBS (Irvine, Cat. No. 3000), 1% sodium pyruvate (Gibco, Cat. No. 1136) and 0.25% glucose. Cells were plated at 250,000 cells/T75 flask and split twice weekly. For all assays, cells were plated in Wallac 96-well sterile plates (PerkinElmer, Cat. No. 3983498).
Norepinephrine (NE) Uptake Assay
On day 1, cells were plated at 3,000 cells/well in growth medium and maintained in a cell incubator (37° C., 5% CO2). On day 2, growth medium was replaced with 200 μl of assay buffer (25 mM HEPES; 120 mM NaCl; 5 mM KCl; 2.5 mM CaCl2; 1.2 mM MgSO4; 2 mg/ml glucose (pH 7.4, 37° C.)) containing 0.2 mg/ml ascorbic acid and 10 μM pargyline. Plates containing cells with […] of assay buffer were equilibrated for 10 minutes at 37° C. prior to addition of compounds. A stock solution of desipramine was prepared in DMSO (10 mM) and delivered to triplicate wells containing cells for a final test concentration of 1 μM. Data from these wells were used to define non-specific NE uptake (minimum NE uptake). Test compounds were prepared in DMSO (10 mM) and diluted in assay buffer according to test range (1 to 10,000 nM). Twenty-five microliters of assay buffer (maximum NE uptake) or test compound were added directly to triplicate wells containing cells in 200 μl of assay buffer. The cells in assay buffer with test compounds were incubated for 20 minutes at 37° C. To initiate the NE uptake, [^3H]NE diluted in assay buffer (120 nM final assay concentration) was delivered in 25 μl aliquots to each well and the plates were incubated for 5 minutes (37° C.). The reaction was terminated by decanting the supernatant from the plate. The plates containing cells were washed twice with 200 μl assay buffer (37° C.) to remove free radioligand. The plates were then inverted, left to dry for 2 minutes, then reinverted and air-dried for an additional 10 minutes. The cells were lysed in 25 μl of 0.25 N NaOH solution (4° C.), placed on a shake table and vigorously shaken for 5 minutes. After cell lysis, 75 μl of scintillation cocktail was added to each well and the plates were sealed with film tape. The plates were returned to the shake table and vigorously shaken for a minimum of 10 minutes to ensure adequate partitioning of organic and aqueous solutions. The plates were counted in a Wallac Microbeta counter (PerkinElmer) to collect the raw cpm data.
For each experiment, a data stream of cpm values collected from the Wallac Microbeta counter was downloaded to a Microsoft Excel statistical application program. Calculations of EC50 values were made using the transformed-both-sides logistic dose response program written by Wyeth Biometrics Department. The statistical program uses mean cpm values from wells representing maximum binding or uptake (assay buffer) and mean cpm values from wells representing minimum binding or uptake ((1 μM desipramine (hNET) or 1 μM paroxetine (hSERT)). Estimation of the EC50 value was completed on a log scale and the line was fit between the maximum and minimum binding or uptake values. All graphic data representation was generated by normalizing each data point to a mean percent based on the maximum and minimum binding or uptake values. The EC50 values reported from multiple experiments were calculated by pooling the raw data from each experiment and analyzing the pooled data as one experiment.

T1 sequence (P23975 whole entry): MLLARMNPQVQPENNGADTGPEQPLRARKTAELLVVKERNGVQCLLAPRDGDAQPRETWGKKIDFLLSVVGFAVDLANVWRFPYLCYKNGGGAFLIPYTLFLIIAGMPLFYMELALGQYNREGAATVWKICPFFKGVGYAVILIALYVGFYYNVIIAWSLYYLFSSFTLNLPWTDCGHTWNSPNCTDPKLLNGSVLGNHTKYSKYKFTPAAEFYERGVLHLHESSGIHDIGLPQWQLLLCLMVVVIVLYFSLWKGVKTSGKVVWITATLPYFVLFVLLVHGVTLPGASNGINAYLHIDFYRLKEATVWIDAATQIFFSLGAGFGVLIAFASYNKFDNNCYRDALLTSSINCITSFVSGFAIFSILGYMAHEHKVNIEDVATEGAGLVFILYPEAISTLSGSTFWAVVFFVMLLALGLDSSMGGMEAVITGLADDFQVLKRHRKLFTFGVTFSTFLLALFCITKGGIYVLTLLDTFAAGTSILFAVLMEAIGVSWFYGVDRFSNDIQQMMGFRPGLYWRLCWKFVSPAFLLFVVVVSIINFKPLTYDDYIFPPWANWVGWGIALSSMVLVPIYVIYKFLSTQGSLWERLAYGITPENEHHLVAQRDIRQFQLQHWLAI

| SMILES | % Inhibition @ 1 μM (hNET) |
| --- | --- |
| CNC1CCN(CC(c2cccc(C(F)(F)F)c2)C2(O)CCCCC2)C1 (stereo in doubt) [Example 223, 1-{2-[(3R)-3-(methylamino)pyrrolidin-1-yl]-1-[3-(trifluoromethyl)phenyl]ethyl}cyclohexanol dihydrochloride] | 41.2% |

Same assay, conditions: MDCK-Net6, 1 μM test compound, [3H]NE uptake

| SMILES | inhibition at 1 µM |
| --- | --- |
| CNC1CCN(CC(c2cccc(Cl)c2)C2CCCC2)CC1 (centres unmarked) [Example 228, 1-[2-(3-chlorophenyl)-2-cyclopentylethyl]-N-methylpiperidin-4-amine dihydrochloride] | 84.2% |
| NC1CCN(CC(c2ccc(OC(F)(F)F)cc2)C2(O)CCC2)CC1 (centres unmarked) [Example 305, 1-{2-(4-aminopiperidin-1-yl)-1-[4-(trifluoromethoxy)phenyl]ethyl}cyclobutanol dihydrochloride] | 49.9% |
| NC1CCN(CC(c2cccc3ccccc23)C2(O)CCC2)CC1 (centres unmarked) [Example 43, 1-[2-(4-aminopiperidin-1-yl)-1-(1-naphthyl)ethyl]cyclobutanol dihydrochloride] | 47% |
| CN(C)C1CCN(CC(c2cccc(Cl)c2)C2CCCC2)CC1 (centres unmarked) [Example 229, 1-[2-(3-chlorophenyl)-2-cyclopentylethyl]-N,N-dimethylpiperidin-4-amine dihydrochloride] | 87.3% |
| OC1(C(CN2CCC(N3CCCCC3)CC2)c2ccc3ccccc3c2)CCCCC1 (centres unmarked) [Example 22, 1-[2-(1,4′-bipiperidin-1′-yl)-1-(2-naphthyl)ethyl]cyclohexanol dihydrochloride] | 85% |
| OC1(C(CN2CCC(N3CCCC3)CC2)c2cccc(Oc3ccccc3)c2)CCCCC1 (centres unmarked) [Example 316, 1-[1-(3-phenoxyphenyl)-2-(4-pyrrolidin-1-ylpiperidin-1-yl)ethyl]cyclohexanol dihydrochloride] | 67.5% |
| OC1CCN(CC(c2ccc(OCc3ccccc3)c(Cl)c2)C2(O)CCCCC2)CC1 (centres unmarked) [Example 241, 1-[2-[4-(benzyloxy)-3-chlorophenyl]-2-(1-hydroxycyclohexyl)ethyl]piperidin-4-ol hydrochloride] | 72.5% |
| CN(C)C1CCN(CC(c2cccc(Cl)c2)C2CCCCC2)CC1 (centres unmarked) [Example 233, 1-[2-(3-chlorophenyl)-2-cyclohexylethyl]-N,N-dimethylpiperidin-4-amine dihydrochloride] | 91.1% |
| N[C@@H]1CCCN(CC(c2ccc(OCc3ccccc3)c(Cl)c2)C2(O)CCCCC2)C1 (stereo partly drawn) [Example 193, 1-{2-[(3R)-3-aminopiperidin-1-yl]-1-[4-(benzyloxy)-3-chlorophenyl]ethyl}cyclohexanol dihydrochloride] | 87.2% |
| OC1(C(CN2CCC(N3CCCCC3)CC2)c2ccc(OCCc3ccccc3)cc2)CCCCC1 (centres unmarked) [Example 461, 1-{2-(1,4′-bipiperidin-1′-yl)-1-[4-(2-phenylethoxy)phenyl]ethyl}cyclohexanol dihydrochloride] | 17% |
| COc1ccc2scc(C(CN3CCC(N)CC3)C3(O)CCCCC3)c2c1 (centres unmarked) [Example 280, 1-[2-(4-aminopiperidin-1-yl)-1-(5-methoxy-1-benzothien-3-yl)ethyl]cyclohexanol dihydrochloride] | 18% |

Other lines, results leading:

| inhibition at 1 µM | SMILES |
| --- | --- |
| 88% | OC1(C(CN2CCC(N3CCCCC3)CC2)c2cccc(C(F)(F)F)c2)CCCCC1 (centres unmarked) [Example 20, 1-{2-(1,4′-bipiperidin-1′-yl)-1-[3-(trifluoromethyl)phenyl]ethyl}cyclohexanol dihydrochloride] |
| 18.7% | NC1CCN(CC(c2ccc(OC(F)(F)F)cc2)C2(O)CCCCC2)CC1 (centres unmarked) [Example 303, 1-{2-(4-aminopiperidin-1-yl)-1-[4-(trifluoromethoxy)phenyl]ethyl}cyclohexanol dihydrochloride] |
| 46% | N[C@@H]1CCN(CC(c2ccc3ccccc3c2)C2(O)CCCCC2)C1 (stereo partly drawn) [Example 374, 1-[2-[(3R)-3-aminopyrrolidin-1-yl]-1-(2-naphthyl)ethyl]cyclohexanol dihydrochloride] |
| 31.9% | CN(C)[C@H]1CCN(CC(c2cccc(C(F)(F)F)c2)C2(O)CCCCC2)C1 (stereo partly drawn) [Example 222, 1-{2-[(3S)-3-(dimethylamino)pyrrolidin-1-yl]-1-[3-(trifluoromethyl)phenyl]ethyl}cyclohexanol dihydrochloride] |
| 21.2% | CN(C)C1CCN(CC(c2ccc3ccccc3c2)C2(O)CCCCC2)CC1 (centres unmarked) [Example 317, 1-[2-[4-(dimethylamino)piperidin-1-yl]-1-(2-naphthyl)ethyl]cyclohexanol dihydrochloride] |
| 50.4% | CN[C@@H]1CCCN(CC(c2cccc(OC(F)(F)F)c2)C2(O)CCCCC2)C1 (stereo partly drawn) [Example 186, 1-[2-{(3R)-3-(methylamino)piperidin-1-yl]-1-[3-(trifluoromethoxy)phenyl]ethyl}cyclohexanol dihydrochloride] |
| 99% | OC1([C@H](CN2CCC(N3CCCCC3)CC2)c2cccc(OC(F)(F)F)c2)CCCCC1 [Example 366, 1-{(1S)-2-(1,4′-bipiperidin-1′-yl)-1-[3-(trifluoromethoxy)phenyl]ethyl}cyclohexanol dihydrochloride] |
| 27.3% | CN[C@H]1CCN(CC(c2cccc(C(F)(F)F)c2)C2(O)CCCCC2)C1 (stereo partly drawn) [Example 220, 1-{2-[(3S)-3-(methylamino)pyrrolidin-1-yl]-1-[3-(trifluoromethyl)phenyl]ethyl}cyclohexanol dihydrochloride] |
| 42% | CN[C@@H]1CCN(CC(c2cccc(OC(F)(F)F)c2)C2(O)CCCCC2)C1 (stereo partly drawn) [Example 218, 1-{2-[(3R)-3-(methylamino)pyrrolidin-1-yl]-1-[3-(trifluoromethoxy)phenyl]ethyl}cyclohexanol dihydrochloride] |
| 88% | NC1CCN(CC(c2cccc(Br)c2)C2(O)CCCCC2)CC1 (centres unmarked) [Example 18, 1-[2-(4-aminopiperidin-1-yl)-1-(3-bromophenyl)ethyl]cyclohexanol dihydrochloride] |
| 86% | CNC1CCN(C[C@H](c2cccc(OC(F)(F)F)c2)C2(O)CCCCC2)CC1 [Example 359, 1-{(1S)-2-[4-(methylamino)piperidin-1-yl]-1-[3-(trifluoromethoxy)phenyl]ethyl}cyclohexanol dihydrochloride] |
| 12.3% | CN(C)[C@H]1CCCN(CC(c2cccc(OC(F)(F)F)c2)C2(O)CCCCC2)C1 (stereo partly drawn) [Example 191, 1-{2-[(3S)-3-(dimethylamino)piperidin-1-yl]-1-[3-(trifluoromethoxy)phenyl]ethyl}cyclohexanol dihydrochloride] |
| 49.9% | N[C@H]1CCCN(CC(c2cccc(OC(F)(F)F)c2)C2(O)CCCCC2)C1 (stereo partly drawn) [Example 190, 1-{2-[(3S)-3-aminopiperidin-1-yl]-1-[3-(trifluoromethoxy)phenyl]ethyl}cyclohexanol dihydrochloride] |
| 0% | C[C@@H]1CCC(O)([C@H](CN2CCC(N3CCCCC3)CC2)c2cccc(OC(F)(F)F)c2)C1 (stereo partly drawn) [Example 398, (3R)-1-{2-(1.4′-bipiperidin-1′-yl)-1-[3-(trifluoromethoxy)phenyl]ethyl}-3-methylcyclopentanol dihydrochloride] |

Same assay, conditions: MDCK-Net6, 30 μM test compound (stated in cell), [3H]NE uptake

| SMILES | inhibition at 30 µM |
| --- | --- |
| N[C@@H]1CCN(CC(c2cccc3ccccc23)C2(O)CCCCC2)C1 (stereo partly drawn) [Example 377, 1-[2-[(3R)-3-aminopyrrolidin-1-yl]-1-(1-naphthyl)ethyl]cyclohexanol dihydrochloride] | 82% |

Same assay, conditions: [3H]NE uptake, test range 1 to 10,000 nM

| SMILES | pEC50 |
| --- | --- |
| OC1(C(CN2CCC(N3CCCCC3)CC2)c2cccc(C(F)(F)F)c2)CCCCC1 (centres unmarked) [Example 20, 1-{2-(1,4′-bipiperidin-1′-yl)-1-[3-(trifluoromethyl)phenyl]ethyl}cyclohexanol dihydrochloride] | 6.59 |
| OC1(C(CN2CCC(N3CCCCC3)CC2)c2ccc3ccccc3c2)CCCCC1 (centres unmarked) [Example 22, 1-[2-(1,4′-bipiperidin-1′-yl)-1-(2-naphthyl)ethyl]cyclohexanol dihydrochloride] | 6.80 |
| OC1([C@H](CN2CCC(N3CCCCC3)CC2)c2cccc(OC(F)(F)F)c2)CCCCC1 [Example 366, 1-{(1S)-2-(1,4′-bipiperidin-1′-yl)-1-[3-(trifluoromethoxy)phenyl]ethyl}cyclohexanol dihydrochloride] | 6.96 |
| NC1CCN(CC(c2cccc(Br)c2)C2(O)CCCCC2)CC1 (centres unmarked) [Example 18, 1-[2-(4-aminopiperidin-1-yl)-1-(3-bromophenyl)ethyl]cyclohexanol dihydrochloride] | 6.70 |
| CNC1CCN(C[C@H](c2cccc(OC(F)(F)F)c2)C2(O)CCCCC2)CC1 [Example 359, 1-{(1S)-2-[4-(methylamino)piperidin-1-yl]-1-[3-(trifluoromethoxy)phenyl]ethyl}cyclohexanol dihydrochloride] | 6.54 |
